Tests used:
Type in all cases: functional
Conditions in all cases: read-out: Activity
HL-60(TB) = assay: Growth inhibition of human HL-60(TB) cells assessed as cell growth at 10 uM incubated for 48 hrs by sulforhodamine B assay relative to control
K562 = assay: Growth inhibition of human K562 cells assessed as cell growth at 10 uM incubated for 48 hrs by sulforhodamine B assay relative to control
MOLT-4 = assay: Growth inhibition of human MOLT-4 cells assessed as cell growth at 10 uM incubated for 48 hrs by sulforhodamine B assay relative to control
A549 = assay: Growth inhibition of human A549/ATCC cells assessed as cell growth at 10 uM incubated for 48 hrs by sulforhodamine B assay relative to control
EKVX = assay: Growth inhibition of human EKVX cells assessed as cell growth at 10 uM incubated for 48 hrs by sulforhodamine B assay relative to control
HOP-62 = assay: Growth inhibition of human HOP-62 cells assessed as cell growth at 10 uM incubated for 48 hrs by sulforhodamine B assay relative to control
NCI-H226 = assay: Growth inhibition of human NCI-H226 cells assessed as cell growth at 10 uM incubated for 48 hrs by sulforhodamine B assay relative to control
NCI-H23 = assay: Growth inhibition of human NCI-H23 cells assessed as cell growth at 10 uM incubated for 48 hrs by sulforhodamine B assay relative to control
NCI-H322M = assay: Growth inhibition of human NCI-H322M cells assessed as cell growth at 10 uM incubated for 48 hrs by sulforhodamine B assay relative to control
NCI-H522 = assay: Growth inhibition of human NCI-H522 cells assessed as cell growth at 10 uM incubated for 48 hrs by sulforhodamine B assay relative to control
HCC 2998 = assay: Growth inhibition of human HCC 2998 cells assessed as cell growth at 10 uM incubated for 48 hrs by sulforhodamine B assay relative to control
HCT-116 = assay: Growth inhibition of human HCT-116 cells assessed as cell growth at 10 uM incubated for 48 hrs by sulforhodamine B assay relative to control
HCT-15 = assay: Growth inhibition of human HCT-15 cells assessed as cell growth at 10 uM incubated for 48 hrs by sulforhodamine B assay relative to control
HT-29 = assay: Growth inhibition of human HT-29 cells assessed as cell growth at 10 uM incubated for 48 hrs by sulforhodamine B assay relative to control
KM12 = assay: Growth inhibition of human KM12 cells assessed as cell growth at 10 uM incubated for 48 hrs by sulforhodamine B assay relative to control
SW-620 = assay: Growth inhibition of human SW-620 cells assessed as cell growth at 10 uM incubated for 48 hrs by sulforhodamine B assay relative to control
SF-268 = assay: Growth inhibition of human SF-268 cells assessed as cell growth at 10 uM incubated for 48 hrs by sulforhodamine B assay relative to control
SF-539 = assay: Growth inhibition of human SF-539 cells assessed as cell growth at 10 uM incubated for 48 hrs by sulforhodamine B assay relative to control
SNB-75 = assay: Growth inhibition of human SNB-75 cells assessed as cell growth at 10 uM incubated for 48 hrs by sulforhodamine B assay relative to control
LOX IMVI = assay: Growth inhibition of human LOX IMVI cells assessed as cell growth at 10 uM incubated for 48 hrs by sulforhodamine B assay relative to control
M14 = assay: Growth inhibition of human M14 cells assessed as cell growth at 10 uM incubated for 48 hrs by sulforhodamine B assay relative to control
SK-MEL-5 = assay: Growth inhibition of human SK-MEL-5 cells assessed as cell growth at 10 uM incubated for 48 hrs by sulforhodamine B assay relative to control
UACC-257 = assay: Growth inhibition of human UACC-257 cells assessed as cell growth at 10 uM incubated for 48 hrs by sulforhodamine B assay relative to control
IGROV-1 = assay: Growth inhibition of human IGROV-1 cells assessed as cell growth at 10 uM incubated for 48 hrs by sulforhodamine B assay relative to control
OVCAR-3 = assay: Growth inhibition of human OVCAR-3 cells assessed as cell growth at 10 uM incubated for 48 hrs by sulforhodamine B assay relative to control
OVCAR-5 = assay: Growth inhibition of human OVCAR-5 cells assessed as cell growth at 10 uM incubated for 48 hrs by sulforhodamine B assay relative to control
OVCAR-8 = assay: Growth inhibition of human OVCAR-8 cells assessed as cell growth at 10 uM incubated for 48 hrs by sulforhodamine B assay relative to control
NCI/ADR-RES = assay: Growth inhibition of human NCI/ADR-RES cells assessed as cell growth at 10 uM incubated for 48 hrs by sulforhodamine B assay relative to control
SK-OV-3 = assay: Growth inhibition of human SK-OV-3 cells assessed as cell growth at 10 uM incubated for 48 hrs by sulforhodamine B assay relative to control
786-0 = assay: Growth inhibition of human 786-0 cells assessed as cell growth at 10 uM incubated for 48 hrs by sulforhodamine B assay relative to control
CAKI-1 = assay: Growth inhibition of human CAKI-1 cells assessed as cell growth at 10 uM incubated for 48 hrs by sulforhodamine B assay relative to control
TK-10 = assay: Growth inhibition of human TK-10 cells assessed as cell growth at 10 uM incubated for 48 hrs by sulforhodamine B assay relative to control
UO-31 = assay: Growth inhibition of human UO-31 cells assessed as cell growth at 10 uM incubated for 48 hrs by sulforhodamine B assay relative to control
PC-3 = assay: Growth inhibition of human PC-3 cells assessed as cell growth at 10 uM incubated for 48 hrs by sulforhodamine B assay relative to control
DU-145 = assay: Growth inhibition of human DU-145 cells assessed as cell growth at 10 uM incubated for 48 hrs by sulforhodamine B assay relative to control
MCF7 = assay: Growth inhibition of human MCF7 cells assessed as cell growth at 10 uM incubated for 48 hrs by sulforhodamine B assay relative to control
MDA-MB-231 = assay: Growth inhibition of human MDA-MB-231 cells assessed as cell growth at 10 uM incubated for 48 hrs by sulforhodamine B assay relative to control
BT-549 = assay: Growth inhibition of human BT-549 cells assessed as cell growth at 10 uM incubated for 48 hrs by sulforhodamine B assay relative to control
T47D = assay: Growth inhibition of human T47D cells assessed as cell growth at 10 uM incubated for 48 hrs by sulforhodamine B assay relative to control
MDA-MB-468 = assay: Growth inhibition of human MDA-MB-468 cells assessed as cell growth at 10 uM incubated for 48 hrs by sulforhodamine B assay relative to control

Compound | growth at 10 µM (HL-60(TB)) [%] | growth at 10 µM (MOLT-4) [%] | growth at 10 µM (A549) [%] | growth at 10 µM (EKVX) [%] | growth at 10 µM (HOP-62) [%] | growth at 10 µM (NCI-H226) [%] | growth at 10 µM (NCI-H23) [%] | growth at 10 µM (NCI-H322M) [%] | growth at 10 µM (NCI-H522) [%] | growth at 10 µM (HCC 2998) [%] | growth at 10 µM (HCT-116) [%] | growth at 10 µM (HCT-15) [%] | growth at 10 µM (HT-29) [%] | growth at 10 µM (KM12) [%] | growth at 10 µM (SW-620) [%] | growth at 10 µM (SF-268) [%] | growth at 10 µM (SF-539) [%] | growth at 10 µM (SNB-75) [%] | growth at 10 µM (LOX IMVI) [%] | growth at 10 µM (M14) [%] | further results
CC(=O)Nc1cc(CO)cc(NC(=O)c2ccc(NC(=O)CCCN3CCOCC3)cc2)c1 | 106 | 99.5 | 104 | 103 | 101 | 95.6 | 98.3 | 107 | 93.4 | 102 | 104 | 103 | 104 | 109 | 103 | 110 | 97.6 | 92.5 | 110 | 103 | growth at 10 µM (K562): 96.7%; growth at 10 µM (SK-MEL-5): 100%; growth at 10 µM (UACC-257): 106%; growth at 10 µM (IGROV-1): 126%; growth at 10 µM (OVCAR-3): 121%; growth at 10 µM (OVCAR-5): 106%; growth at 10 µM (OVCAR-8): 105%; growth at 10 µM (NCI/ADR-RES): 106%; growth at 10 µM (SK-OV-3): 104%; growth at 10 µM (786-0): 97%; growth at 10 µM (CAKI-1): 110%; growth at 10 µM (TK-10): 93.1%; growth at 10 µM (UO-31): 86.6%; growth at 10 µM (PC-3): 104%; growth at 10 µM (DU-145): 115%; growth at 10 µM (MCF7): 102%; growth at 10 µM (MDA-MB-231): 102%; growth at 10 µM (BT-549): 99.8%; growth at 10 µM (T47D): 98.7%; growth at 10 µM (MDA-MB-468): 97.8%
CCN(CC)CC(=O)Nc1ccc(C(=O)Nc2cc(CO)cc(NC(C)=O)c2)cc1 | 107 | 120 | 95.7 | 104 | 101 | 95.8 | 104 | 105 | 105 | 98.6 | 109 | 100 | 110 | 107 | 109 | 107 | 99.7 | 110 | 106 | 109 | growth at 10 µM (SK-MEL-5): 103%; growth at 10 µM (UACC-257): 103%; growth at 10 µM (IGROV-1): 129%; growth at 10 µM (OVCAR-3): 116%; growth at 10 µM (OVCAR-5): 107%; growth at 10 µM (OVCAR-8): 107%; growth at 10 µM (NCI/ADR-RES): 110%; growth at 10 µM (SK-OV-3): 107%; growth at 10 µM (786-0): 97.4%; growth at 10 µM (CAKI-1): 106%; growth at 10 µM (TK-10): 99.2%; growth at 10 µM (UO-31): 97.8%; growth at 10 µM (PC-3): 116%; growth at 10 µM (DU-145): 119%; growth at 10 µM (MCF7): 100%; growth at 10 µM (MDA-MB-231): 112%; growth at 10 µM (BT-549): 112%; growth at 10 µM (T47D): 99.1%; growth at 10 µM (MDA-MB-468): 99.4%

— ChEMBL document CHEMBL4715697, “Synthesis and biological activity of benzamide DNA minor groove binders” (2016)
